Test results published in patent US9827219B2, “Compositions and methods for lowering levels of high-sensitivity C-reactive protein (HS-CRP) in a subject” (priority 2012, dated 2017).

What was measured:
[1] = tested on: TG, LDL-C, non-HDL-C, VLDL-C, Lp-PLA2, Apo B, TC, HDL-C, VLDL-TG, hs-CRP, oxLDL, RLP-C; test: Lipid and inflammatory parameters in statin-treated patients with diabetes mellitus-2, all endpoints (Example 2); assay type: in vivo, human; details: for Each evaluated endpoint (TG, LDL-C, non-HDL-C, VLDL-C, Lp-PLA2, Apo B, TC, HDL-C, VLDL-TG, hs-CRP, oxLDL, RLP-C), adjusted for placebo: twelve weeks, diabetes mellitus-2, FIG. 1
From the text: (§1) Parameters (a)-(y) can be measured in accordance with any clinically acceptable methodology. For example, triglycerides, total cholesterol, HDL-C and fasting blood sugar can be sample from serum and analyzed using standard photometry techniques. VLDL-TG, LDL-C and VLDL-C can be calculated or determined using serum lipoprotein fractionation by preparative ultracentrifugation and subsequent quantitative analysis by refractometry or by analytic ultracentrifugal methodology. Apo A1, Apo B and hsCRP can be determined from serum using standard nephelometry techniques. Lipoprotein (a) can be determined from serum using standard turbidimetric immunoassay techniques. LDL particle number and particle size can be determined using nuclear magnetic resonance (NMR) spectrometry. Remnants lipoproteins and LDL-phospholipase A2 can be determined from EDTA plasma or serum and serum, respectively, using enzymatic immunoseparation techniques. Oxidized LDL, intercellular adhesion molecule-1 and interleukin-2 levels can be determined from serum using standard enzyme immunoassay techniques. These techniques are described in detail in standard textbooks, for example Tietz Fundamentals of Clinical Chemistry, 6th Ed. (Burtis, Ashwood and Borter Eds.), WB Saunders Company.
The effect of >96% E-EPA on lipid and inflammatory parameters was evaluated in patients with fasting triglyceride levels ≧150 mg/dl and <499 mg/dl on concomitant statin therapy. Patients with diabetes mellitus-2 were randomized and treated with either 2 g/day >96% E-EPA, 4 g/day >96%, or placebo for twelve weeks. At the end of the treatment period, several diabetes efficacy endpoints were evaluated including, TG, LDL-C, non-HDL-C, VLDL-C, Lp-PLA2, Apo B, TC, HDL-C, VLDL-TG, hs-CRP, oxLDL, and RLP-C.

ICAM-1 = test: ANCHOR study (fasting TG ≧200 and <500 mg/dl despite statin), ICAM-1; assay type: in vivo, human; details: ANCHOR ITT, week 12
From the text: as §1
A multi-center, placebo-controlled, randomized, double-blind, 12-week study was performed to evaluate the efficacy and safety of >96% E-EPA in patients with fasting triglyceride levels ≧200 mg/dl and <500 mg/dl despite statin therapy (the mean of two qualifying entry values needed to be ≧185 mg/dl and at least one of the values needs to be ≧200 mg/dl). The primary objective of the study was to determine the efficacy of >96% E-EPA 2 g daily and 4 g daily, compared to placebo, in lowering fasting TG levels in patients with high risk for cardiovascular disease and with fasting TG levels ≧200 mg/dL and <500 mg/dL, despite treatment to LDL-C goal on statin therapy. […]

CC/C=C\C/C=C\C/C=C\C/C=C\C/C=C\CCCC(=O)OCC [AMR101, all-cis eicosa-5,8,11,14,17-pentaenoic acid ethyl ester]
Each evaluated endpoint (TG, LDL-C, non-HDL-C, VLDL-C, Lp-PLA2, Apo B, TC, HDL-C, VLDL-TG, hs-CRP, oxLDL, RLP-C), adjusted for placebo ([1]; 2 g/day): showed a decrease
Each evaluated endpoint (TG, LDL-C, non-HDL-C, VLDL-C, Lp-PLA2, Apo B, TC, HDL-C, VLDL-TG, hs-CRP, oxLDL, RLP-C), adjusted for placebo ([1]; 4 g/day): showed a decrease
Placebo-adjusted effects on non-HDL-C, VLDL-C, Apo B, TC, VLDL-TG, hsCRP and oxLDL, less-controlled versus well-controlled subjects ([1]; 4 g/day, Table 7 and FIG. 3): more pronounced effects were observed in less-controlled diabetics
ICAM-1 change from baseline (median) (ICAM-1; 2 g/day): 0.5%
ICAM-1 change from baseline (median) (ICAM-1; 4 g/day): 0.8%
ICAM-1 end-of-treatment value (median) (ICAM-1; 4 g/day): 270.0 ng/mL
